ChEMBL document CHEMBL4823249, “Discovery of a Pyrimidinedione Derivative as a Potent and Orally Bioavailable Axl Inhibitor” (J Med Chem, 2021)
Activity calls are given as the source filed them. The calls are words filed in the database; no cut-off is given here.

Tests used:
U-87 MG = assay: Antitumor activity against human U-87MG cells xenografted in BALB/c nude mouse assessed as tumor growth inhibition at 100 mg/kg, po administered once daily for 14 days by caliper method; assay type: functional, U-87MG ATCC; conditions: 336 h, time 14 day, read-out: TGI
[1] = target: Proto-oncogene tyrosine-protein kinase Src (Homo sapiens, UniProt P12931); assay: Inhibition of recombinant human C-Src using KVEKIGEGTYGVVYK as substrate incubated 40 mins in presence of [gamma-33ATP] by scintillation counting based radiometry assay
Proto-oncogene tyrosine-protein kinase Src, sequence (P12931 2-536 limits assumed): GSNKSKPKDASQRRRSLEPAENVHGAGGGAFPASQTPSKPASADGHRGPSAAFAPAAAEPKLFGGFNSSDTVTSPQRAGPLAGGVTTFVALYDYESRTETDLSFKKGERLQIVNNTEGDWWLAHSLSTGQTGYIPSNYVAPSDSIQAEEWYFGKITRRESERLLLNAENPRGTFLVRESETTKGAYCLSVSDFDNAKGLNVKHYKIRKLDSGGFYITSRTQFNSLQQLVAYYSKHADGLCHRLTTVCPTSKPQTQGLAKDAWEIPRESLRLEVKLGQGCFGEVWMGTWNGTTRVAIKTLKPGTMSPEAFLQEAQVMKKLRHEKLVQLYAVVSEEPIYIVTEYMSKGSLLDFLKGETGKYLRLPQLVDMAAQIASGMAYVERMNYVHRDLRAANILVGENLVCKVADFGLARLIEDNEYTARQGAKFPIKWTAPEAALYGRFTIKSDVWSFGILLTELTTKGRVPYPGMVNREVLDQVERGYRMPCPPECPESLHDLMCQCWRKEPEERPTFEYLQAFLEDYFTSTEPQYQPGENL

[2] = target: T1, Tyrosine-protein kinase receptor UFO (Mus musculus) (UniProt Q00993); assay: Inhibition of AXL in mouse BaF3/TEL-AXL cells assessed as reduction in Gas6-induced phosphorylation of AKT at 0.5 to 50 nM preincubated for 2 hrs followed by Gas6 stimulation for 15 mins by Western blotting analysis; assay type: cell-based; conditions: dose 0.5-50 nM
T1 sequence (whole entry): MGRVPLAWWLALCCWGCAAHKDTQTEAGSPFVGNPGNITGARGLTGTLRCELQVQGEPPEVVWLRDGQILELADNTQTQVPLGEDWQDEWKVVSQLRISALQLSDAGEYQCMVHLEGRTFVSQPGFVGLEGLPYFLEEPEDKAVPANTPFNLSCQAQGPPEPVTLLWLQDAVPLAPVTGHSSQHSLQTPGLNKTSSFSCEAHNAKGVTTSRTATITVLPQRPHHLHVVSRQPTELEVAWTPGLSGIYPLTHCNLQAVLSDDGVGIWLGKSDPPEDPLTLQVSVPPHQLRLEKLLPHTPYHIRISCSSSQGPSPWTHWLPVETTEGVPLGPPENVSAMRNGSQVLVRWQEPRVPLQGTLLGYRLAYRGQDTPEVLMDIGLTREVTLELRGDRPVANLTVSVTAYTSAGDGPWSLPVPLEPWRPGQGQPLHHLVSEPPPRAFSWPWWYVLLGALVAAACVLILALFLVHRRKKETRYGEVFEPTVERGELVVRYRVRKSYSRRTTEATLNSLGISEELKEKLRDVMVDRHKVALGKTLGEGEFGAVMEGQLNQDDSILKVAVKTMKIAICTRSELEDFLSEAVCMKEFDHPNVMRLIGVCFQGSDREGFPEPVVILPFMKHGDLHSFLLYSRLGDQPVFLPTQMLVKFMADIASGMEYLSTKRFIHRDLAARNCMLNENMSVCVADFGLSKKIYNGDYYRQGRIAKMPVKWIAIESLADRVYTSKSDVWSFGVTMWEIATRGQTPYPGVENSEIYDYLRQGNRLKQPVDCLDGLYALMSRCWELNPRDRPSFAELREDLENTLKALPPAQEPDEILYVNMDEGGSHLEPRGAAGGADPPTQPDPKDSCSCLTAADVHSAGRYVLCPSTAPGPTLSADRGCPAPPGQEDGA

[3] = Cmax in ICR mouse at 3 mg/kg, po measured upto 24 hrs by LC-MS analysis; assay type: ADME, organism-based; set-up: route oral, dose 3 mg/kg, time <=24; conditions: in vivo
[4] = Clearance in ICR mouse at 1 mg/kg, iv measured upto 24 hrs by LC-MS analysis; assay type: ADME, organism-based; conditions: in vivo
Ephrin type-A receptor 2 = Ephrin type-A receptor 2 (Homo sapiens, UniProt P29317); assay: Inhibition of recombinant human EphA2 (596 to 900 residues) using poly(Glu, Tyr) 4:1 as substrate incubated for 40 mins in presence of [gamma-33ATP] by scintillation counting based radiometry assay
Ephrin type-A receptor 2, sequence (P29317 whole entry, the tested form may be a part): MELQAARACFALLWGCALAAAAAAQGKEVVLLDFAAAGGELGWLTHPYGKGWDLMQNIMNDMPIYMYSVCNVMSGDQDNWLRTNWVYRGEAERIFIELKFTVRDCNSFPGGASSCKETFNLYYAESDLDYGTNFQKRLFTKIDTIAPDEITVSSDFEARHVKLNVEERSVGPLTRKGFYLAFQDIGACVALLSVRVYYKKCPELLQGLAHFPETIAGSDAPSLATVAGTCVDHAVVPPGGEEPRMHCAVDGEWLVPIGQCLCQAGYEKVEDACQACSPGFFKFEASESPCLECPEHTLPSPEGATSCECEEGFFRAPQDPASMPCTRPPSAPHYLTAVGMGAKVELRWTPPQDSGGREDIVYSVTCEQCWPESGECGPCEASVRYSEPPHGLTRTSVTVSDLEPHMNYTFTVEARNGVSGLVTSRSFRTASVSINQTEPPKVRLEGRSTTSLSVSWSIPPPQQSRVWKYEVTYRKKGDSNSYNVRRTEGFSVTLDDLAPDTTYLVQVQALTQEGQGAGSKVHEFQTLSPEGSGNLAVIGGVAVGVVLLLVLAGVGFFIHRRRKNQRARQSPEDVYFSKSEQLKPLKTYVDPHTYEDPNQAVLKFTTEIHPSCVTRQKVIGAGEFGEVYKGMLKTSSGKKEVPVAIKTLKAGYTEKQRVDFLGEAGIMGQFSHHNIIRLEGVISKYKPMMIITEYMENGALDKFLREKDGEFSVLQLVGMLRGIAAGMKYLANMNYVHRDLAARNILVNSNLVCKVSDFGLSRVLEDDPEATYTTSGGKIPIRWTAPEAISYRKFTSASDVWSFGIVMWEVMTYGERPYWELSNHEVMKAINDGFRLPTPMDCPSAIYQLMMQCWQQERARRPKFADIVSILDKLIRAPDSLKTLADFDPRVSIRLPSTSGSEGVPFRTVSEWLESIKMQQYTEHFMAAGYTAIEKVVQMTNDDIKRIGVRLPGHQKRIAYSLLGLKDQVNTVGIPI

[5] = AUC(0 to infinity) in Sprague-Dawley rat at 3 mg/kg, po measured upto 24 hrs by LC-MS analysis; assay type: ADME, organism-based; set-up: route oral, dose 3 mg/kg, time <=24; conditions: in vivo
[6] = Cmax in Sprague-Dawley rat at 3 mg/kg, po measured upto 24 hrs by LC-MS analysis; assay type: ADME, organism-based; set-up: route oral, dose 3 mg/kg, time <=24; conditions: in vivo
[7] = target: Calcium/calmodulin-dependent protein kinase type 1 (Homo sapiens, UniProt Q14012); assay: Inhibition of recombinant human CaMK1 (2 to end residues) using […] as substrate incubated for 40 mins in presence of [gamma-33ATP] by scintillation counting based radiometry assay
Calcium/calmodulin-dependent protein kinase type 1, sequence (Q14012 whole entry): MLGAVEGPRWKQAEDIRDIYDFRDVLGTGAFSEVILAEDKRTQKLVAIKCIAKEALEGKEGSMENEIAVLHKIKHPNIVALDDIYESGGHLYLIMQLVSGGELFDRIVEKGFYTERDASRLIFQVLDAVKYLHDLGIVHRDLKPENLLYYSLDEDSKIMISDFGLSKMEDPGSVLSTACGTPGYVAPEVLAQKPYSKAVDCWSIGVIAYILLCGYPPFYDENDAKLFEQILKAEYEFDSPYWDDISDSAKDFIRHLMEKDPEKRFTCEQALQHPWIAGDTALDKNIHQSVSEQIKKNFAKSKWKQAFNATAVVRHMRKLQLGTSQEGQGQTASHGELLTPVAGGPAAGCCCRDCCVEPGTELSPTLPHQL

[8] = target: Epidermal growth factor receptor (Homo sapiens, UniProt P00533); assay: Inhibition of recombinant human EGFR (696 to end residues) using poly(Glu, Tyr) 4:1 as substrate incubated for 40 mins in presence of [gamma-33ATP] by scintillation counting based radiometry assay
[9] = target: Cyclin-dependent kinase 1/cyclin B1 (Homo sapiens, UniProt P06493); assay: Inhibition of recombinant full length human CDK1/CyclinB using Histone H1 as substrate incubated for 40 mins in presence of [gamma-33ATP] by scintillation counting based radiometry assay; assay type: protein-complex assay
Cyclin-dependent kinase 1/cyclin B1, sequence (P06493 whole entry): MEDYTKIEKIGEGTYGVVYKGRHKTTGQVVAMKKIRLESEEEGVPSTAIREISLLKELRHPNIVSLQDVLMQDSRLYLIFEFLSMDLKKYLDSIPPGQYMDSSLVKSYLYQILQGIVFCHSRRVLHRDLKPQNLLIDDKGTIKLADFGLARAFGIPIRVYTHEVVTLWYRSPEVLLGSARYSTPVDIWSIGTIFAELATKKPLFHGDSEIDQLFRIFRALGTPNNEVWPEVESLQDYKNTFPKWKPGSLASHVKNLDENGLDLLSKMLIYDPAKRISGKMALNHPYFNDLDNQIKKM
Cyclin-dependent kinase 1/cyclin B1, sequence (P14635 whole entry, further chain): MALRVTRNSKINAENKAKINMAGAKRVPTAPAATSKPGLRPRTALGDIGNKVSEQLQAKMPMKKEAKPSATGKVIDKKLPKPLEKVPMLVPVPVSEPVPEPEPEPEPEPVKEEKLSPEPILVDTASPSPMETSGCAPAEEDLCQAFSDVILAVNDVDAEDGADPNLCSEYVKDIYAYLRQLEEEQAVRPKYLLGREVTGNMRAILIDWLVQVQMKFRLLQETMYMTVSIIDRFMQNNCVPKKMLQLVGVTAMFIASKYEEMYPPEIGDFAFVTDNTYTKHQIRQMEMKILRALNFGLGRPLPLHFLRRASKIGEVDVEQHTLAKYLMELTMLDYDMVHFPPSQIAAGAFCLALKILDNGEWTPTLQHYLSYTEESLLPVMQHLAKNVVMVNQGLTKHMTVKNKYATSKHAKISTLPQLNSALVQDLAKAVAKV

[10] = Half life in ICR mouse at 3 mg/kg, po measured upto 24 hrs by LC-MS analysis; assay type: ADME, organism-based; conditions: in vivo
[11] = AUC(0 to infinity) in ICR mouse at 1 mg/kg, iv measured upto 24 hrs by LC-MS analysis; assay type: ADME, organism-based; set-up: route intravenous, dose 1 mg/kg, time <=24; conditions: in vivo
[12] = target: Dual specificity mitogen-activated protein kinase kinase 1 (Homo sapiens, UniProt Q02750); assay: Inhibition of recombinant human MEK1 using inactive MAPK2 as substrate incubated for 40 mins in presence of [gamma-33ATP] by scintillation counting based radiometry assay
Dual specificity mitogen-activated protein kinase kinase 1, sequence (Q02750 whole entry): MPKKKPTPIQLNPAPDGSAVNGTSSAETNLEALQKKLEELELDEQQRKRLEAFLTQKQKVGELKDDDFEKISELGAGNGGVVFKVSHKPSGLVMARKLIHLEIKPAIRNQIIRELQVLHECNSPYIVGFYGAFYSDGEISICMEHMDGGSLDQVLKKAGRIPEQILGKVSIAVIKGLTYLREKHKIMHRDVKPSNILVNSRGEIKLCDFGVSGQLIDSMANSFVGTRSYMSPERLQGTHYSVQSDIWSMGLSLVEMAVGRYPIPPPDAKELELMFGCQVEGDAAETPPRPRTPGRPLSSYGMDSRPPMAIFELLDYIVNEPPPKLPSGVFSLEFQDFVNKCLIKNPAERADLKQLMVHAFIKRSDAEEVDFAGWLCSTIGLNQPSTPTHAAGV

HCC4006 = assay: Antiproliferative activity against human HCC4006 cells incubated for 72 hrs by SRB or CCK8 assay; assay type: functional, cell-based; conditions: HCC4006, 72 h
[13] = Antiproliferative activity against human JHH7 cells incubated for 72 hrs by SRB or CCK8 assay; assay type: functional, cell-based; conditions: JHH7, 72 h
BaF3 [14] = assay: Antitumor activity against mouse BaF3/TEL-AXL cells xenografted in BALB/c nude mouse assessed as tumor growth inhibition at 5 mg/kg, po administered once daily for 14 days by caliper method; assay type: functional; conditions: 336 h, time 14 day, read-out: TGI
[15] = target: Vascular endothelial growth factor receptor 2 (Homo sapiens, UniProt P35968); assay: Inhibition of recombinant human KDR (790 to end residues) using myelin basic protein as substrate incubated for 40 mins by [gamma-33P]-ATP scintillation counting based radiometry assay
Vascular endothelial growth factor receptor 2, sequence (P35968 whole entry): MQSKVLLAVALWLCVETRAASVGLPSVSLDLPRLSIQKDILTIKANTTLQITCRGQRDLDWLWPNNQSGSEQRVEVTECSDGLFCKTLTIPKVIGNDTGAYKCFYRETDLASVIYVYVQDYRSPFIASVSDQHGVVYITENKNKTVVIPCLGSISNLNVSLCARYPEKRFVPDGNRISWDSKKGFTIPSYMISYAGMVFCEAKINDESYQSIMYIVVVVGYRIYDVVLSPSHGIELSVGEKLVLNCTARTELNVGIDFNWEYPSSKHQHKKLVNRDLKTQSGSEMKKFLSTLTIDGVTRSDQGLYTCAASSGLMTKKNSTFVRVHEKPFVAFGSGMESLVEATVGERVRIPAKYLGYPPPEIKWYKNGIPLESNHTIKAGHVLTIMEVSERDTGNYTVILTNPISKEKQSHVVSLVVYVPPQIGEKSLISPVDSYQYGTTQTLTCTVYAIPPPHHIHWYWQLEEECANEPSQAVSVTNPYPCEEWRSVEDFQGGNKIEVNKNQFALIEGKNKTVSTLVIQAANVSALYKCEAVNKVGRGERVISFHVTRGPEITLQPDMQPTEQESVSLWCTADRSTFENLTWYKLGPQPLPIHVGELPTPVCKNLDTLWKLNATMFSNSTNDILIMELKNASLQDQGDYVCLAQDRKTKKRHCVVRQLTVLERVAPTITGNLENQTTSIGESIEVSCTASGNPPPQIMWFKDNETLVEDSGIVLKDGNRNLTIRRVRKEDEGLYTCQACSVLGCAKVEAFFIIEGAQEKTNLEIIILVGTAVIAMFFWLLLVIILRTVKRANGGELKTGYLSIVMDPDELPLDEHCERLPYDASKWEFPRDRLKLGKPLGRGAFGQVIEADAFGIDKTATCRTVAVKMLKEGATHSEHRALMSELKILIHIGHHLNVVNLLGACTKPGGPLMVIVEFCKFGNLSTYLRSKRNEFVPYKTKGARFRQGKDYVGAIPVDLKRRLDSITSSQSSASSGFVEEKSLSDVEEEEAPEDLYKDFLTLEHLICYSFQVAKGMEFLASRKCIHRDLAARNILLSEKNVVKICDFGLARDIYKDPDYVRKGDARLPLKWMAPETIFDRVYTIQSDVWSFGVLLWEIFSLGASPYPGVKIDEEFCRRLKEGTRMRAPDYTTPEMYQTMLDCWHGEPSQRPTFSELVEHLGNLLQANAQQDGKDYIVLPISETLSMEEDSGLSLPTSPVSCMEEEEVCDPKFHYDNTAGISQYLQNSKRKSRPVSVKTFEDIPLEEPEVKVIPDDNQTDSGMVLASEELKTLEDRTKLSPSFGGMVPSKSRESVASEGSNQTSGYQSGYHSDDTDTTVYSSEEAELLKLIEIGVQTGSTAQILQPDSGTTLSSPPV

EBC-1 = assay: Antiproliferative activity against human EBC-1 cells incubated for 72 hrs by SRB or CCK8 assay; assay type: functional, cell-based; conditions: EBC-1, 72 h
[16] = AUC(0 to t) in ICR mouse at 3 mg/kg, po measured upto 24 hrs by LC-MS analysis; assay type: ADME, organism-based; set-up: route oral, dose 3 mg/kg, time <=24; conditions: in vivo
[17] = target: Hepatocyte growth factor receptor (Homo sapiens, UniProt P08581); assay: Inhibition of MET signaling in human EBC1 cells assessed as reduction in phosphorylation of MET after 2 hrs by Western blotting analysis; assay type: cell-based; conditions: EBC-1, dose 10-100 nM
[18] = AUC(0 to t) in ICR mouse at 1 mg/kg, iv measured upto 24 hrs by LC-MS analysis; assay type: ADME, organism-based; set-up: route intravenous, dose 1 mg/kg, time <=24; conditions: in vivo
BaF3 [19] = assay: Antiproliferative activity against mouse BaF3/TEL-AXL cells incubated for 72 hrs by SRB or CCK8 assay; conditions: BaF3, 72 h
[20] = target: Dual specificity protein kinase CLK1 (Homo sapiens, UniProt P49759); assay: Inhibition of human recombinant CLK1 (130 to end residues) using ERMRPRKRQGSVR as substrate incubated for 40 mins in presence of [gamma-33ATP] by radiometric scintillation counting analysis
Dual specificity protein kinase CLK1, sequence (P49759 whole entry): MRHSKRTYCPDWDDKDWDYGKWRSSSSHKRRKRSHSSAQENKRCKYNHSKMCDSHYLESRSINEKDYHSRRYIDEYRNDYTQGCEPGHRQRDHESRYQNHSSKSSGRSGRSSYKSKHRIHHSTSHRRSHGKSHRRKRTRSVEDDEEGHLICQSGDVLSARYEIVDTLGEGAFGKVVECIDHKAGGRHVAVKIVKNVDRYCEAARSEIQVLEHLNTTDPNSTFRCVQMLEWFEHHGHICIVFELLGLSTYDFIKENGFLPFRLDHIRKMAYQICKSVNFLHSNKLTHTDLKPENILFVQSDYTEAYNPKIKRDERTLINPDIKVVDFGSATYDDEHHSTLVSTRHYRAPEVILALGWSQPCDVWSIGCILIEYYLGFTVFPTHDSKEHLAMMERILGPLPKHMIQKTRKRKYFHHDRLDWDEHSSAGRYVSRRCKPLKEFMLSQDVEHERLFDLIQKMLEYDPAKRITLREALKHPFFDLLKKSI

[21] = Inhibition of recombinant human PKA using Kemptide as substrate measured after 40 mins in presence of [gamma33P]ATP by scintillation counting based radiometry assay

In the case of `CC(C)n1cc(C(=O)Nc2ccc(Oc3ccnc(NC(=O)C4CC4)c3)c(F)c2)c(=O)n(-c2ccc(F)cc2)c1=O`, the inhibition in vivo at 100 mg/kg (U-87 MG) is reported as 99.1%, the IC50 [1] is reported as greater than 1000 nM and the inhibition [2] is reported as “Active”. The Cmax [3] was 2990 ng/mL, the clearance [4] was 2.29 mL/min/kg and the IC50 (Ephrin type-A receptor 2) was greater than 100 nM. It also gave an AUC(0-inf) [5] of 43900 ng·h/mL, a Cmax [6] of 4560 ng/mL and an IC50 [7] greater than 1000 nM. The IC50 [8] was greater than 1000 nM, the IC50 [9] was greater than 1000 nM and the half-life [10] was 5.2 h. For the same molecule, the AUC(0-inf) [11] was 7360 ng·h/mL, the IC50 [12] was greater than 1000 nM and the IC50 (HCC4006) was greater than 10000 nM. For the same molecule, the IC50 [13] was greater than 10000 nM, the inhibition in vivo at 5 mg/kg (BaF3 [14]) was 106% and the IC50 [15] was greater than 1000 nM. The IC50 (EBC-1) was 64 nM, the AUC(0-t) at 24 h [16] was 24000 ng·h/mL and the inhibition [17] was “Dose-Dependent Effect”. The AUC(0-t) at 24 h [18] was 7010 ng·h/mL, the IC50 (BaF3 [19]) was less than 0.005 nM and the IC50 [20] was greater than 1000 nM. For the same molecule, the IC50 [21] was greater than 1000 nM.
